For one compound, IC50 results are on record in publication PMC4045772, “Structure of the BTB Domain of Keap1 and Its Interaction with the Triterpenoid Antagonist CDDO” (PLoS ONE, 2014).

The test addresses T1, Keap1 (Homo sapiens, UniProt Q14145).
T1 construct: BTB plus part of BACK domain, residues 35-235, uncleaved N-terminal His-tag, E. coli BL21(DE3); AlphaScreen displacement of Cul3 (Cul3/Rbx1)
Briefly: X-ray co-crystal structure ([…] Å) of the covalent complex; AlphaScreen inhibition of Cul3 binding with purified Keap1 […].

Structures are written as SMILES. pIC50: −log10 of the molar value.

T1 sequence (P62877 whole entry, the tested form may be a part): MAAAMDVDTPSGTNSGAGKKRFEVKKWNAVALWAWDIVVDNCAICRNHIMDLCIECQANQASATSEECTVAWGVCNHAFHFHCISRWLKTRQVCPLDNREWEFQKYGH
T1 sequence (Q14145 35-235): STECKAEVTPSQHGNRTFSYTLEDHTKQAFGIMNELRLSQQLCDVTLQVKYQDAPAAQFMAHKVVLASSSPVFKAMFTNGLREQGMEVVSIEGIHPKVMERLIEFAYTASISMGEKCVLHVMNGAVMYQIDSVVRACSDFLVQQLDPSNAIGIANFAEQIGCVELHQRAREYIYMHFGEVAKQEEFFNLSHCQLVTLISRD
T1 sequence (Q13618 2-768, further chain): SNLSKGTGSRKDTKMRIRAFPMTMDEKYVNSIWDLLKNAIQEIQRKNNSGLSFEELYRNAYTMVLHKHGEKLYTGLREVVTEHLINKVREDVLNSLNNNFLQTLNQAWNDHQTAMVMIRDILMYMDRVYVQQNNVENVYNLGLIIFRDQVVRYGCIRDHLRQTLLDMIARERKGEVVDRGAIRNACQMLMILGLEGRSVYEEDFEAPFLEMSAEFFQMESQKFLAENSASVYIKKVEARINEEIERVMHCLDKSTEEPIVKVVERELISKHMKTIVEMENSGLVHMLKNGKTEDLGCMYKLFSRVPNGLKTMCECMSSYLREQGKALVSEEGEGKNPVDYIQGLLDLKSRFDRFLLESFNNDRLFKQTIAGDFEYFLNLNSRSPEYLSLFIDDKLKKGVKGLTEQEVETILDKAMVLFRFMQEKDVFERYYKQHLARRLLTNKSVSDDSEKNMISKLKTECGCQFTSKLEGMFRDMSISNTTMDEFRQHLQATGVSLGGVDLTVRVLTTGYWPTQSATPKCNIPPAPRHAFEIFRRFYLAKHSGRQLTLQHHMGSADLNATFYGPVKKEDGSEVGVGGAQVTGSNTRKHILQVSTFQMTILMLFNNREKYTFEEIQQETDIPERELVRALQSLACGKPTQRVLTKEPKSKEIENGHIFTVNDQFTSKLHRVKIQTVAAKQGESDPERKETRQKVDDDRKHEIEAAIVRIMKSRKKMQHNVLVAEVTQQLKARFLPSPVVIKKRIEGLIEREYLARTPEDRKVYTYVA

With `CC1(C)CC[C@]2(C(=O)O)CC[C@]3(C)[C@H](C(=O)C=C4[C@@]5(C)C=C(C#N)C(=O)C(C)(C)[C@@H]5CC[C@]43C)[C@@H]2C1` [CDDO, 2-cyano-3,12-dioxooleana-1,9-dien-28-oic-acid], the pIC50 was above 7.00.
